According to patent US20260048046A1, “METHOD FOR IMPROVING GROWTH PERFORMANCE IN FEEDLOT CATTLE” (Elanco US Inc., priority 2022, published 2026):

Tested on: beef cattle
Assay: 91-d study: growth performance of beef cattle fed lubabegron
Type: in vivo
Settings: for ADG / DMI / G:F / Unshrunk final BW: 91-d treatment, LS mean
Source text: A randomized complete block design was used to evaluate the effect of lubabegron (LUB) on performance over a 91-d period using 336 beef cattle (BW=453±34.5 kg) housed in cattle pen enclosures (CPE). Four LUB treatments were included in the study based on dose: 0.0 (control or CON), 1.38, 5.5, and 22.0 (mg·kg^−1 of DM). Because there was a limited number of CPE (n=8), three sequential cycles (blocks) were required to generate 6 replicates of each dose×sex combination. As such, 112 cattle (56 steers and 56 heifers) were housed concurrently within each cycle across the eight CPE (14 cattle/CPE), with each dose×sex combination being represented by a single CPE/cycle. To assure different frame sizes of cattle were represented, cattle in cycles one and three were large-frame Continental crossbreds, whereas cattle in cycle 2 were medium-frame British crossbreds.
Treatment administration for the three cycles occurred from April through July, August through November, and December through March of 2014 and 2015, respectively. Four weeks before beginning treatments for each cycle (day −28), up to 145 cattle were sourced from a common origin and transported to the study site at the University of California-Davis to be group-housed in single-sexed outdoor pens. The presence of growth-promoting implants was assessed, and any preexisting implants were excised before shipment to the study site to ensure they had been implant-free for a minimum of 28 d before treatments began on day 0. No additional implants were used in these cattle, and they were considered nonimplanted.
On day −8, cattle were screened for abnormal health conditions by a veterinarian and ranked by BW to identify the 56 eligible cattle within each sex that provided the narrowest weight range. The following day (day −7), the 56 cattle selected for study enrollment. within each sex were grouped into sets of four consecutively weight-ranked cattle. Cattle were then randomly allocated to their respective treatment within each weight group and transferred into the CPE. The CPE were randomly assigned to sex and dose treatment before each cycle, and all study personnel were blinded to treatments throughout the duration of the study. All cattle were fed the negative control basal finishing diet (Table 1) for 1 week (days −7 to −1) after being placed into the CPE to allow for acclimation before beginning treatments.
Treatments began on day 0 and cattle in each CPE received their respective treatment for 91 d. Emission measurements began at 0800 hours on day 0 and ended at 0500 hours on day 91, immediately preceding cattle removal from the CPE for final BW measurements and transportation to the commercial slaughter facility.
Cattle had been fed a concentrate-based diet in a commercial setting before arrival at the study site on day −28, at which point they were provided ad libitum access to water and re-acclimated to a concentrate-based diet using a step-up program involving two intermediate diets based on increasing concentrate levels (˜60% and 70%, respectively) and varying proportions of alfalfa and wheat hay. On day −14, cattle were transitioned onto a finishing diet (Table 1) formulated to meet, or exceed, the minimum nutrient requirements for growing beef cattle (NRC, 2000) that was then fed for the remainder of the study. A nonmedicated supplement (i.e., type B feed with a ground corn carrier) was included as 2.5% of the diet DM during acclimation for all cattle from day −14 until the beginning of treatment administration. On day 0, one of four type B supplements were added to the basal diet to provide either 0.0 (CON), 1.38, 5.5, or 22.0 mg·kg^−1 (DM basis) LUB in a type C (i.e., final feed) medicated feed. All type C feeds containing the appropriate concentrations of LUB or CON were prepared at the study site by adding the same proportions of Type B supplement, water, and basal ration in a rotary mixer wagon (Roto-Mix Forage Express, Dodge City, KS). […]

CC(C)(Cc1ccc(Oc2ncccc2C#N)cc1)NC[C@H](O)COc1ccccc1-c1cccs1 [LUB, 2-{4-[2-({(2S)-2-Hydroxy-3-[2-(2-thienyl)phenoxy]propyl}amino)-2-methylpropyl]phenoxy}nicotinonitrile]
Effect of LUB treatment on final BW (91 d, all LUB doses vs CON, P=0.257): not altered | Effect of LUB on DMI (91 d, all LUB doses vs CON, P=0.585): no effect | ADG increase vs. CON (LUB 1.38 mg·kg^−1, 91 d): 11.8% | G:F increase compared with CON (LUB 1.38 mg·kg^−1, 91 d): 8.3% | ADG (LUB 1.38 mg·kg^−1 DM): 1.42 kg | DMI (LUB 1.38 mg·kg^−1 DM): 9.2 kg | G:F (LUB 1.38 mg·kg^−1 DM): 0.156 kg:kg | Unshrunk final BW (LUB 1.38 mg·kg^−1 DM): 583 kg | ADG increase vs. CON (LUB 5.5 mg·kg^−1, 91 d): 9.4% | G:F increase compared with CON (LUB 5.5 mg·kg^−1, 91 d): 9.7% | ADG (LUB 5.5 mg·kg^−1 DM): 1.35 kg | DMI (LUB 5.5 mg·kg^−1 DM): 8.8 kg | G:F (LUB 5.5 mg·kg^−1 DM): 0.158 kg:kg | Unshrunk final BW (LUB 5.5 mg·kg^−1 DM): 582 kg | ADG increase vs. CON (LUB 22.0 mg·kg^−1, 91 d): 12.6% | G:F increase compared with CON (LUB 22.0 mg·kg^−1, 91 d): 13.2% | ADG (LUB 22.0 mg·kg^−1 DM): 1.43 kg | DMI (LUB 22.0 mg·kg^−1 DM): 8.8 kg | G:F (LUB 22.0 mg·kg^−1 DM): 0.163 kg:kg | Unshrunk final BW (LUB 22.0 mg·kg^−1 DM): 582 kg
